“Also recorded” adds a separate entry of the source.
Legend:
[1] = system: TH, VMAT2, SOD1/2 mRNA expression in N27 rat dopaminergic neural cells; format: cell-based
[2] = molecular target: Nurr1 LBD; conditions: cited from earlier work
[3] = molecular target: Nurr1 LBD (Homo sapiens, UniProt P43354); test: Isothermal titration calorimetry; format: binding; conditions: ITC, 25 °C, recombinant Nurr1 LBD
[4] = system: HEK293T cells; test: WST-8 cytotoxicity assay; format: cell-based; conditions: stable Renilla luciferase activity and WST-8 assay; 100 μM
[5] = molecular target: Nur77 (NR4A1) (Homo sapiens, UniProt P22736); format: cell-based
[6] = molecular target: T1, NOR-1 (NR4A3) (Homo sapiens, UniProt Q92570); format: cell-based
T1 sequence (Q92570 394-623 limits assumed): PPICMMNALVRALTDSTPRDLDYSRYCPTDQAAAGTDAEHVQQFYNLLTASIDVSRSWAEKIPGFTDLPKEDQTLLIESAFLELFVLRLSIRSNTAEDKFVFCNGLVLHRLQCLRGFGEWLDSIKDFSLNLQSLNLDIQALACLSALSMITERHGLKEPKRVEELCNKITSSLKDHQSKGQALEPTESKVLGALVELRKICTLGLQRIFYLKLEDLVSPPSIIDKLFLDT

[7] = system: nuclear receptors outside the NR4A family (THRα, RARα, PPARγ, revERBα, RORγ, VDR, LXRα, FXR, RXRα); format: cell-based
[8] = Glutathione reactivity assay; format: physicochemical; conditions: 125 μM compound, 2.5 mM GSH in PBS at 37 °C, up to 24 h
[9] = system: TH and VMAT2 mRNA expression in T98G cells; format: cell-based, human

Chain of Nur77 (NR4A1) (P22736 360-595 limits assumed, species assumed): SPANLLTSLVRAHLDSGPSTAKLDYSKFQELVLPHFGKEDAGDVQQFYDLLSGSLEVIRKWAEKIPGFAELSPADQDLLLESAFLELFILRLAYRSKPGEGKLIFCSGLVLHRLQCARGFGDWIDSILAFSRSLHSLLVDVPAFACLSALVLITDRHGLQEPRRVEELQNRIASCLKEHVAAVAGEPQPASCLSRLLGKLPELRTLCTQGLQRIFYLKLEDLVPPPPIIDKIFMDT
Chain of Nurr1 LBD (Homo sapiens, UniProt P43354) (P43354 360-598): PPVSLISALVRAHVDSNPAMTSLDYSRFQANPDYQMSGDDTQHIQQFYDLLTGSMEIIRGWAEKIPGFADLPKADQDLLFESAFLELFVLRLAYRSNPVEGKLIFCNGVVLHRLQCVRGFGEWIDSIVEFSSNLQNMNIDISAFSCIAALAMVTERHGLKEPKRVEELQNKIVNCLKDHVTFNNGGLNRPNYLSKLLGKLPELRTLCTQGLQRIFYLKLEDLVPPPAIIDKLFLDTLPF

Row | SMILES | TH, VMAT, SOD1/2 expression [1] | Kd [3] | effect on cell viability [4] | also measured
1 | Clc1ccc2[nH]ccc2c1 [2b, 5-chloro-1H-indole] | induced | – | – | Kd [2]: 15 µM
2 | CC(C)N1CCC(NC(=O)c2cc3[nH]ccc3cc2Cl)CC1 [5e] | – | no detectable interaction; also recorded: no binding^c | no pronounced effect on cell viability | –
3 | CC1CCN(CCCNC(=O)c2cc3[nH]ccc3cc2Cl)CC1 [5m] | – | no detectable interaction; also recorded: no binding^c | no pronounced effect on cell viability | –
4 | CN(C)CCOc1ccc(Cl)cc1NC(=O)c1cc2[nH]ccc2cc1Cl [5o, 5-Chloro-N-{5-chloro-2-[2-(dimethylamino)ethoxy]phenyl}-1H-indole-6-carboxamide] | induced | – | no pronounced effect on cell viability | activity on Nur77 (NR4A1) [5]: preference for Nurr1 over the related NR4A receptors; also recorded: preference of 5o for Nurr1 over Nur77; activity on NOR-1 (NR4A3) [6]: preference for Nurr1 over the related NR4A receptors; also recorded: no NOR-1 (NR4A3) activation; modulation of nuclear receptors outside the NR4A family [7]: did not modulate; also recorded: No nuclear receptor modulation; stability against reaction with glutathione (GSH) [8]: stable; also recorded: High stability; Nurr1-regulated mRNA expression of TH and VMAT2 [9]: induced
5 | O=C(NCCN1CCC2CCCCC2C1)c1cc2[nH]ccc2cc1Cl (centres unmarked) [5r] | – | – | no pronounced effect on cell viability | –
6 | CCN(CC)C1CCC(NC(=O)c2cc3[nH]ccc3cc2Cl)CC1 (centres unmarked) [5t] | – | no detectable interaction; also recorded: no binding^c | no pronounced effect on cell viability | –
7 | CCCCN1CCC(CNC(=O)c2cc3[nH]ccc3cc2Cl)C1 (centres unmarked) [5v] | – | – | no pronounced effect on cell viability | –
8 | Oc1cc2cc[nH]c2cc1O [DHI (2a), 5,6-dihydroxyindole] | generally weaker effects | – | – | TH expression [1]: downregulated
9 | CN(C)CCOc1ccc(Cl)cc1Nc1ccnc2cc(Cl)ccc12 [compound 13, 7-Chloro-N-{5-chloro-2-[2-(dimethylamino)ethoxy]phenyl}quinolin-4-amine] | induced | – | – | activity on Nur77 (NR4A1) [5]: activated Nurr1 and Nur77 with equal potency; activity on NOR-1 (NR4A3) [6]: preference over NOR-1; also recorded: less active on NOR-1; modulation of nuclear receptors outside the NR4A family [7]: did not modulate; also recorded: No nuclear receptor modulation
